The values below are quoted from earlier work in patent publication US5916587A, “Transdermal delivery matrix for piroxicam” (Sunkyong Industries Co., Ltd., priority 1992, dated 1999).

Molecules are shown by their SMILES.

The conditions of data set [1]: oral use.
Data set [2] relates to prostaglandin biosynthesis.
For data set [3] the following is noted: orally administered.

As for `CN1C(C(=O)Nc2ccccn2)=C(O)c2ccccc2S1(=O)=O` [Piroxicam, piroxicam], the side effects entry in data set [1] is recorded as “gastro-intestinal trouble, peptic ulcer”. Moreover, in data set [2] (compared with indomethacin), the “potency as an inhibitor of prostaglandin biosynthesis in vitro” value is listed as “about equal in potency to indomethacin”. In addition, in data set [3], the “drug excreted in the urine unchanged” value was “Less than 5%” and the metabolism entry is listed as “metabolized at the first pass route”.

`Nc1nc2cccc(-c3ccc(CN4CCS(=O)(=O)CC4)cc3)n2n1` [metabolite]: the “fold less active than piroxicam inhibiting prostaglandin synthesis” value in data set [2] (metabolite vs piroxicam) is “at least 1000 times”.
